Earlier results on three compounds are cited in paper PMC10713630, “Elucidation of the structural basis for ligand binding and translocation in conserved insect odorant receptor co-receptors” (Nature Communications, 2023).

The term EC50 denotes the concentration giving half of the maximal effect.

SMILES strings stand for the structures.

The test system of one series is AgamOrco/AgamOR65. Conditions: cited from earlier work.
The next series relates to MhraOR5. Set-up: method as in PMID 34349260. The note with it: cited from earlier work.
The test system of the next series is MhraOR1 G169A. Set-up: method as in Del Marmol et al. 3. Conditions: ref Del Marmol et al. 3; cited from earlier work.
In another series the test system is MhraOR5 M209V. Also on record: method as in Del Marmol et al. 3. The note with it: ref Del Marmol et al. 3; cited from earlier work.

Turning to `CC(C)c1ccc(NC(=O)CSc2nnc(-c3ccncc3)n2C2CC2)cc1` [VUAA4], the EC50 in the series on AgamOrco/AgamOR65 (AgamOrco/AgamOR65, ref Tailor et al. 1) is 2100 nM. Also, the “Potency relative to VUAA1” value in the series with AgamOrco/AgamOR65 (ranked by EC50) was “greater potency”.

As to `C=CCc1ccc(O)c(OC)c1` [Eugenol, eugenol], the “Agonist of MhraOR5” value with MhraOR5 is given as “agonists”. Also, in the series on MhraOR1 G169A, the “Effect on Eugenol-induced channel response” value is “I”.

For the compound `CCN(CC)C(=O)c1cccc(C)c1` [DEET], the “Effect on DEET-induced channel response” value in the series on MhraOR5 M209V is given as “I”. Besides, the “Agonist of MhraOR5” value in the series on MhraOR5 is listed as “agonists”.
